Test results taken from patent US10407467B2, “Polymyxin derivatives and their use in combination therapy together with different antibiotics” (priority 2013, dated 2019).
Where a name gives a salt, the structure may show the parent alone. Bridge positions count the residues as written; N and C are the ends. Square brackets hold non-standard residues; d marks the D form. Peptide text beside a SMILES is read from it. * marks the point of attachment. ξ: configuration not given here. Cyclohexylacetyl = O=C(CC1CCCCC1)*; Thr(3ξ) = CC(O)[C@H](N)C(=O)O; Octanoyl = CCCCCCCC(=O)*; Dab = NCC[C@H](N)C(=O)O; X4 = NC1CCCC1C(=O)*

Assays:
Format in all cases: cell-based
[1] = tested on: Klebsiella pneumoniae; test: MIC, sole activity (no second agent); conditions: in the absence of Rifampicin
Summary of the method: (§1)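 First, isolated colonies grown 18-24 hours on Mueller-Hinton agar were suspended to 0.5 McFarland; next, up to four strains per pathogen were tested in duplicate in cation-adjusted MHB; finally, the lower concordant value or modal repeat value was reported against Polymyxin B.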

[2] = tested on: Acinetobacter baumannii; test: MIC, sole activity (no second agent); conditions: in the absence of Rifampicin
Summary of the method: as §1

[3] = tested on: Pseudomonas aeruginosa; test: MIC, sole activity (no second agent); conditions: in the absence of Rifampicin
Summary of the method: as §1

[4] = tested on: Klebsiella pneumoniae; test: MIC, compound in combination with a second agent (broth microdilution); conditions: for MIC K. pneumoniae ATCC 4352: strain ATCC 4352
Summary of the method: (§2)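 MIC = combined concentration of test compound plus partner agent, mixed at equal mass (1:1 w/w, salt form as used). Up to four strains per species; colonies adjusted to 0.5 McFarland. Run in duplicate; >2-fold disagreement invalidates the run.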

[5] = tested on: Acinetobacter baumannii; test: as above; conditions: 1:1 (wt:wt) combination with Rifampicin
Summary of the method: as §2

[6] = tested on: Pseudomonas aeruginosa; test: as above; conditions: 1:1 (wt:wt) combination with Rifampicin
Summary of the method: as §2

[7] = tested on: Escherichia coli; test: as above; conditions: 1:1 (wt:wt) combination with Rifampicin
Summary of the method: as §2

[8] = 1:1 (wt:wt) combination with Rifampicin, MIC = total drug concentration
[9] = 1:1 (wt:wt) combination with Rifampicin, MIC = total drug concentration, strain ATCC-BAA-2146
[10] = 1:1 (wt:wt) combination with Rifampicin, MIC = total drug concentration, strain CCUG-59348
[11] = MIC = total drug concentration, strain ATCC BAA-747
[12] = MIC = total drug concentration, strain CCUG57249
[13] = MIC = total drug concentration, strain NCTC 13423
[14] = MIC = total drug concentration, strain NCTC 13424
[15] = MIC = total drug concentration, strain ATCC 27853
[16] = MIC = total drug concentration, strain ATCC CRM-9027
[17] = MIC = total drug concentration, strain ATCC-47
[18] = MIC = total drug concentration, strain CCUG 59626
[19] = MIC = total drug concentration, strain ATCC25922
[20] = MIC = total drug concentration, strain NCTC9001
[21] = 1:1 (wt:wt) combination with Rifampicin, MIC is total drug concentration
[22] = MIC is total drug concentration
[23] = Ratio of Compound to Rifampicin 1:1, total drug concentration
[24] = Ratio of Compound to Rifampicin 1:3, total drug concentration
[25] = Ratio of Compound to Rifampicin 3:1, total drug concentration

Row | Molecule | MIC K. pneumoniae ATCC 4352 [4, 8] [micrograms/mL] | MIC K. pneumoniae ATCC-BAA-2146 [4, 9] [micrograms/mL] | MIC K. pneumoniae CCUG-59348 [4, 10] [micrograms/mL] | MIC A. baumannii ATCC BAA-747 [5, 11] [micrograms/mL] | MIC A. baumannii CCUG57249 [5, 12] [micrograms/mL] | MIC A. baumannii NCTC 13423 [5, 13] [micrograms/mL] | MIC A. baumannii NCTC 13424 [5, 14] [micrograms/mL] | MIC P. aeruginosa ATCC 27853 [6, 15] [micrograms/mL] | MIC P. aeruginosa ATCC CRM-9027 [6, 16] [micrograms/mL] | MIC P. aeruginosa ATCC-47 [6, 17] [micrograms/mL] | MIC P. aeruginosa CCUG 59626 [6, 18] [micrograms/mL] | MIC E. coli ATCC25922 [7, 19] [micrograms/mL] | MIC E. coli NCTC9001 [7, 20] [micrograms/mL] | also measured
1 | CC(C)C[C@@H]1NC(=O)[C@@H](Cc2ccccc2)NC(=O)[C@H](CCN)NC(=O)[C@@H](NC(=O)[C@H](CCN)NC(=O)[C@@H](NC(=O)C2CCCC2N)C(C)O)CCNC(=O)[C@H](C(C)O)NC(=O)[C@H](CCN)NC(=O)[C@H](CCN)NC1=O (stereo partly drawn) [Example 7, (1R,S/2R,S)-2-Aminocyclopentane-carbonyl polymyxin B nonapeptide] (X4-[Thr(3ξ)][Dab][Dab][Dab][dF]L[Dab][Dab][Thr(3ξ)]; lactam 3-C) | 0.125 | 0.25 | 4 | ≤0.06 | ≤0.06 | ≤0.06 | 0.125 | 0.125 | 0.25 | 0.25 | 0.125 | ≤0.06 | 0.25 | MIC K. pneumoniae ATCC 4352 ([1]; strain ATCC 4352): 0.5 micrograms/mL; MIC K. pneumoniae ATCC-BAA2146 ([1]; strain ATCC-BAA2146): >32 micrograms/mL; MIC K. pneumoniae CCUG-59348 ([1]; strain CCUG-59348): >32 micrograms/mL; MIC A. baumannii ATCC13424 ([2]; strain ATCC13424): 2 micrograms/mL; MIC A. baumannii ATCCBAA-747 ([2]; strain ATCCBAA-747): 1 micrograms/mL; MIC A. baumannii CCUG57249 ([2]; strain CCUG 57249): 2 micrograms/mL; MIC A. baumannii NCTC 13423 ([2]; strain NCTC13423): 1 micrograms/mL; MIC P. aeruginosa ATCC 27853 ([3]; strain ATCC27853): 0.125 micrograms/mL; MIC P. aeruginosa ATCC-47 ([3]; strain ATCC-47): 1 micrograms/mL; MIC P. aeruginosa ATCCCRM-9027 ([3]; strain ATCCCRM-9027): 0.125 micrograms/mL; MIC P. aeruginosa CCUG 59626 ([3]; strain CCUG 59626): 0.125 micrograms/mL; MIC K. pneumoniae NCTC 13438 ([4]; 1:1 (wt:wt) combination with Rifampicin, MIC = total drug concentration, strain NCTC 13438): 0.5 micrograms/mL
2 | CCCCCCCC(=O)N[C@H](C(=O)N[C@H](CO)C(=O)N[C@H]1CCNC(=O)[C@H](C(C)O)NC(=O)[C@H](CCN)NC(=O)[C@H](CCN)NC(=O)[C@H](CC(C)C)NC(=O)[C@@H](Cc2ccccc2)NC(=O)[C@H](CCN)NC1=O)C(C)O (stereo partly shown) [Example C1, NAB-739 TFA salt, reference compound] (Octanoyl-[Thr(3ξ)][dS][Dab][Dab][dF]L[Dab][Dab][Thr(3ξ)]; lactam 3-C) | 0.5 | 2 | 4 | 0.5 | 0.5 | 0.5 | 0.5 | 2 | 2 | 4 | 2 | 0.5 | 1 | –
3 | CC(C)C[C@@H]1NC(=O)[C@@H](Cc2ccccc2)NC(=O)[C@H](CCN)NC(=O)[C@@H](NC(=O)[C@H](CCN)NC(=O)[C@@H](NC(=O)CC2CCCCC2)C(C)O)CCNC(=O)[C@H](C(C)O)NC(=O)[C@H](CCN)NC(=O)[C@H](CCN)NC1=O (stereo partly shown) [Example C4, Cyclohexyl ethanoyl polymyxin B nonapeptide, TFA salt, reference compound] (Cyclohexylacetyl-[Thr(3ξ)][Dab][Dab][Dab][dF]L[Dab][Dab][Thr(3ξ)]; lactam 3-C) | – | – | – | – | – | – | – | – | – | – | – | – | – | MIC K. pneumoniae ATCC-BAA-2146 [4, 21]: 1 micrograms/mL; MIC K. pneumoniae CCUG-59348 [4, 21]: 2 micrograms/mL; MIC K. pneumoniae NCTC 13438 [4, 21]: 0.5 micrograms/mL; MIC A. baumannii ATCC BAA-747 [5, 22]: 0.25 micrograms/mL; MIC A. baumannii CCUG57249 [5, 22]: 0.25 micrograms/mL; MIC A. baumannii NCTC 13423 [5, 22]: 0.125 micrograms/mL; MIC A. baumannii NCTC 13424 [5, 22]: 0.25 micrograms/mL; MIC P. aeruginosa ATCC 27853 [6, 22]: 0.5 micrograms/mL; MIC P. aeruginosa ATCC CRM-9027 [6, 22]: 0.5 micrograms/mL; MIC P. aeruginosa ATCC-47 [6, 22]: 1 micrograms/mL; MIC P. aeruginosa CCUG 59626 [6, 22]: 0.25 micrograms/mL; MIC E. coli ATCC25922 [7, 22]: 0.25 micrograms/mL; MIC E. coli NCTC9001 [7, 22]: 0.5 micrograms/mL
4 | Polymyxin B nonapeptide [PMBN, reference compound] | 0.25 | 1 | 4 | 0.25 | 1 | 0.5 | 0.5 | 0.125 | 0.125 | 0.25 | 0.125 | 0.5 | 1 | MIC K. pneumoniae ATCC-BAA-2146 [4, 23]: 2 micrograms/mL; MIC K. pneumoniae CCUG-59348 [4, 23]: 4 micrograms/mL; MIC K. pneumoniae NCTC 13438 [4, 23]: 2 micrograms/mL; MIC K. pneumoniae ATCC-BAA-2146 [4, 24]: 2 micrograms/mL; MIC K. pneumoniae CCUG-59348 [4, 24]: 4 micrograms/mL; MIC K. pneumoniae NCTC 13438 [4, 24]: 2 micrograms/mL; MIC K. pneumoniae ATCC-BAA-2146 [4, 25]: 2 micrograms/mL; MIC K. pneumoniae CCUG-59348 [4, 25]: 8 micrograms/mL; MIC K. pneumoniae NCTC 13438 [4, 25]: 2 micrograms/mL
